# Test results published in patent US12545659B2, “IRAK degraders and uses thereof” (Kymera Therapeutics, Inc., priority 2019, dated 2026).
# Target: T1, IRAK4 (Homo sapiens, UniProt Q9NWZ3)
# T1 construct: endogenous in cells; host or cells: OCI-LY10
# T1 sequence (Q9NWZ3 1-460): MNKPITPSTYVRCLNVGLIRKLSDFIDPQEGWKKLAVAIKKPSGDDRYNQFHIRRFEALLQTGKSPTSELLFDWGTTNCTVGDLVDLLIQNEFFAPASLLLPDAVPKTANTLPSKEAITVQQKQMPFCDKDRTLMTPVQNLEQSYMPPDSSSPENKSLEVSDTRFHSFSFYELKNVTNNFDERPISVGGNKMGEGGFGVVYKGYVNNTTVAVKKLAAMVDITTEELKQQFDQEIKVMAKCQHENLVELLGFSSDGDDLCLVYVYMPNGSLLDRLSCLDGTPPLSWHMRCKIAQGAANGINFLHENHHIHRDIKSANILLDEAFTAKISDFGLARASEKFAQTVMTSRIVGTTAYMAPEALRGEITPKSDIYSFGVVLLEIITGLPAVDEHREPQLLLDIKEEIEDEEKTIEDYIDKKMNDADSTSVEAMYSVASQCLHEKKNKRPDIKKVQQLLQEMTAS
# Assay: IRAK4 MSD Degradation in OCI-LY10
# Format: cell-based
# Conditions: OCI-LY10 cells, 4 hrs incubation, read-out: IRAK4 degradation in OCI-LY10 at 4 hrs: DC50
# Procedure: Degradation of IRAK4 in OCI-LY10 was quantitatively measured using Meso Scale Discovery technology. […] Compounds were then added to the assay plates with a final top concentration of 1 to 10 μM in a 1:3 dilution series with total of 8 doses. The assay plates were then incubated for 4 to 24 hours at 37° C. under 5% C02. […] To prepare MSD assay plates (Meso Scale Discovery Catalog number L15XA-3), the plates were coated with […] capture antibody (mouse Anti-IRAK4 antibody [2H9], ab119942) in PBS, at 40 μL/well. […] Cell lysates were then added to MSD assay plates and the plates were incubated at room temperature for 1 hour. The plates were then washed 3 times with 150 μL/well TBST buffer and 25 μL/well primary detection antibody (rabbit Anti-IRAK4 antibody [Y279], from Abcam. Catalog number ab32511, 1 μg/mL). The assay plates were then incubated at room temperature for 1 hour, washed 3 times with 150 μL/well TBST buffer and 25 μL/well secondary detection antibody, SULFO-TAG anti-rabbit antibody were added (anti rabbit antibody from Meso Scale Discovery, Catalog number R32AB-1, 1 μg/mL). The assay plates were then incubated at room temperature for 1 hour, washed 3 times with 150 μL/well TBST buffer, and 150 μL/well MSD reading buffer (Meso Scale Discovery catalog number R92TC-2) was added. The plates were then analyzed by a MSD reader (Meso Scale Discovery, Model Quick Plex SQ 120). The data was then analyzed by software Prism 7.0 from GraphPad and the dose-depended IRAK4 degradation were fit using a three-parameter logistic equation to calculate DC50.
# The letter codes for IRAK4 […] include: A (<0.05 μM); B (0.05-0.1 μM); C (0.1-0.5 μM); D (0.5-1.0 μM); and E (>1.0 μM).
row,DC50,Compound
1,< 50 nM,"Cn1c(=O)n(C2CCC(=O)NC2=O)c2cccc(C#CCCCNC[C@H]3CC[C@H](n4cc5cc(NC(=O)c6cccc(C(F)(F)F)n6)c(C(C)(C)O)cc5n4)CC3)c21 (stereo partly shown) [I-60, N-[2-[4-[[5-[1-(2,6-dioxo-3-piperidyl)-3-methyl-2-oxo-benzimidazol-4-yl]pent-4-ynylamino]methyl]cyclohexyl]-6-(1-hydroxy-1-methyl-ethyl)indazol-5-yl]-6-(trifluoromethyl)pyridine-2-carboxamide]"
2,< 50 nM,"Cn1c(=O)n(C2CCC(=O)NC2=O)c2ccc(C#CCCCNC[C@H]3CC[C@H](n4cc5cc(NC(=O)c6cccc(C(F)(F)F)n6)c(C(C)(C)O)cc5n4)CC3)cc21 (stereo partly shown) [I-61, N-[2-[4-[[5-[1-(2,6-dioxo-3-piperidyl)-3-methyl-2-oxo-benzimidazol-5-yl]pent-4-ynylamino]methyl]cyclohexyl]-6-(1-hydroxy-1-methyl-ethyl)indazol-5-yl]-6-(trifluoromethyl)pyridine-2-carboxamide]"
3,< 50 nM,Cn1c(=O)n(C2CCC(=O)NC2=O)c2cccc(C[C@H]3CC[C@H](N(C)C[C@H]4CC[C@H](n5cc6cc(NC(=O)c7cccc(C(F)(F)F)n7)c(C(C)(C)O)cc6n5)CC4)CC3)c21 (stereo partly shown) [I-62]
4,< 50 nM,Cn1c(=O)n(C2CCC(=O)NC2=O)c2cccc(CN3CCC(OC4CCN(C[C@H]5CC[C@H](n6cc7cc(NC(=O)c8cccc(C(F)(F)F)n8)c(C(C)(C)O)cc7n6)CC5)CC4)CC3)c21 (stereo partly shown) [I-66]
5,< 50 nM,"CN(CCCC#Cc1ccc2c(c1)n(C)c(=O)n2C1CCC(=O)NC1=O)C[C@H]1CC[C@H](n2cc3cc(NC(=O)c4cccc(C(F)(F)F)n4)c(C(C)(C)O)cc3n2)CC1 (stereo partly shown) [I-67, N-(2-((1r,4r)-4-(((5-(1-(2,6-dioxopiperidin-3-yl)-3-methyl-2-oxo-2,3-dihydro-1H-benzo[d]imidazol-5-yl)pent-4-yn-1-yl)(methyl)amino)methyl)cyclohexyl)-6-(2-hydroxypropan-2-yl)-2H-indazol-5-yl)-6-(trifluoromethyl)picolinamide]"
6,< 50 nM,Cn1c(=O)n(C2CCC(=O)NC2=O)c2cccc(CC3CCN(C[C@H]4CC[C@H](n5cc6cc(NC(=O)c7cccc(C(F)(F)F)n7)c(C(F)F)cc6n5)CC4)CC3)c21 (stereo partly shown) [I-72]
7,50 to 100 nM,Cn1c(=O)n(C2CCC(=O)NC2=O)c2cccc(C[C@H]3CC[C@H](N(C)C[C@H]4CC[C@H](n5cc6cc(NC(=O)c7cccc(C(F)(F)F)n7)c(C(F)F)cc6n5)CC4)CC3)c21 (stereo partly shown) [I-73]
8,< 50 nM,CN(C[C@H]1CC[C@H](n2cc3cc(NC(=O)c4cccc(C(F)(F)F)n4)c(C(C)(C)O)cc3n2)CC1)C1CCC2(CC1)CC(Cc1cccc3c1n(C)c(=O)n3C1CCC(=O)NC1=O)C2 (stereo partly shown) [I-74]
9,< 50 nM,CN(C[C@H]1CC[C@H](n2cc3cc(NC(=O)c4cccc(C(F)(F)F)n4)c(C(C)(C)O)cc3n2)CC1)C1CCN(c2ccc3c(c2)n(C)c(=O)n3C2CCC(=O)NC2=O)CC1 (stereo partly shown) [I-75]
10,< 50 nM,CN(C[C@H]1CC[C@H](n2cc3cc(NC(=O)c4cccc(C(F)(F)F)n4)c(C(C)(C)O)cc3n2)CC1)C1CCN(c2cccc3c2n(C)c(=O)n3C2CCC(=O)NC2=O)CC1 (stereo partly shown) [I-80]
11,50 to 100 nM,Cn1c(=O)n(C2CCC(=O)NC2=O)c2cccc(CCC3CC4(CCN(C[C@H]5CC[C@H](n6cc7cc(NC(=O)c8ccccn8)c(C(C)(C)O)cc7n6)CC5)CC4)C3)c21 (stereo partly shown) [I-81]
12,< 50 nM,CN(C[C@H]1CC[C@H](n2cc3cc(NC(=O)c4ccccn4)c(C(C)(C)O)cc3n2)CC1)C1CCN(c2ccc3c(c2)n(C)c(=O)n3C2CCC(=O)NC2=O)CC1 (stereo partly shown) [I-82]
13,500 to 1000 nM,CN(C[C@H]1CC[C@H](n2cc3cc(NC(=O)c4cccc(C(F)(F)F)n4)c(C(C)(C)O)cc3n2)CC1)C1CCN(c2ccc3c(c2)n(C2CCC(=O)NC2=O)c(=O)n3C)CC1 (stereo partly shown) [I-83]
14,< 50 nM,CN(C[C@H]1CC[C@H](n2cc3cc(NC(=O)c4ccccn4)c(C(C)(C)O)cc3n2)CC1)C1CCN(c2cccc3c2n(C)c(=O)n3C2CCC(=O)NC2=O)CC1 (stereo partly shown) [I-84]
15,< 50 nM,CN(CCCO[C@H]1C[C@H](Cc2cccc3c2n(C)c(=O)n3C2CCC(=O)NC2=O)C1)C[C@H]1CC[C@H](n2cc3cc(NC(=O)c4cccc(C(F)(F)F)n4)c(C(C)(C)O)cc3n2)CC1 (stereo partly shown) [I-85]
16,500 to 1000 nM,CN(C[C@H]1CC[C@H](n2cc3cc(NC(=O)c4ccccn4)c(C(C)(C)O)cc3n2)CC1)C1CCN(c2ccc3c(c2)n(C2CCC(=O)NC2=O)c(=O)n3C)CC1 (stereo partly shown) [I-86]

# Same assay, conditions: OCI-LY10 cells, 24 hrs incubation, read-out: IRAK4 degradation in OCI-LY10 at 24 hrs: DC50
row,Compound,DC50
1,COc1cc2nn([C@H]3CC[C@H](CN4CCO[C@H](CCCNc5cccc6c5C(=O)N(C5CCC(=O)NC5=O)C6=O)C4)CC3)cc2cc1NC(=O)c1cccc(C(F)(F)F)n1 (stereo partly shown) [I-68],50 to 100 nM
2,COc1cc2nn([C@H]3CC[C@H](CN4CCC(O[C@H]5CC[C@H](CNc6cccc7c6C(=O)N(C6CCC(=O)NC6=O)C7=O)CC5)CC4)CC3)cc2cc1NC(=O)c1cccc(C(F)(F)F)n1 (stereo partly shown) [I-69],50 to 100 nM
3,COc1cc2nn([C@H]3CC[C@H](CN4CCO[C@@H](CCNc5cccc6c5C(=O)N(C5CCC(=O)NC5=O)C6=O)C4)CC3)cc2cc1NC(=O)c1cccc(C(F)(F)F)n1 (stereo partly shown) [I-71],50 to 100 nM
4,COc1cc2nn([C@H]3CC[C@H](CN(C)CCCO[C@H]4C[C@H](Nc5ccc6c(c5)C(=O)N(C5CCC(=O)NC5=O)C6=O)C4)CC3)cc2cc1NC(=O)c1cccc(C(F)(F)F)n1 (stereo partly shown) [I-77],50 to 100 nM
5,COc1cc2nn([C@H]3CC[C@H](CN4CCC5(CCC(Nc6cccc7c6C(=O)N(C6CCC(=O)NC6=O)C7=O)CC5)CC4)CC3)cc2cc1NC(=O)c1cccc(C(C)(C)F)n1 (stereo partly shown) [I-88],50 to 100 nM
6,COc1cc2nn([C@H]3CC[C@H](CN(C)[C@H]4CC[C@H](CNc5cccc6c5C(=O)N(C5CCC(=O)NC5=O)C6=O)CC4)CC3)cc2cc1NC(=O)c1cccc(C(C)(C)F)n1 (stereo partly shown) [I-90],100 to 500 nM
7,COc1cc2nn([C@H]3CC[C@H](CN(C)CCCN4CCOC(CNc5cccc6c5C(=O)N(C5CCC(=O)NC5=O)C6=O)C4)CC3)cc2cc1NC(=O)c1cccc(C(C)(F)F)n1 (stereo partly shown) [I-91],50 to 100 nM

# Now from value to compound:
row,DC50,Compound
1,50 to 100 nM,CN(C[C@H]1CC[C@H](n2cc3cc(NC(=O)c4cccc(C(C)(C)F)n4)c(C(C)(C)O)cc3n2)CC1)[C@H]1CC[C@H](CNc2cccc3c2C(=O)N(C2CCC(=O)NC2=O)C3=O)CC1 (stereo partly shown) [I-58]
2,50 to 100 nM,CC(C)(O)c1cc2nn([C@H]3CC[C@H](CN4CCC(COCCCNc5cccc6c5C(=O)N(C5CCC(=O)NC5=O)C6=O)CC4)CC3)cc2cc1NC(=O)c1cccc(C(C)(C)F)n1 (stereo partly shown) [I-59]
3,< 50 nM,CC(C)(O)c1cc2nn([C@H]3CC[C@H](CN4CCO[C@H](CCCNc5cccc6c5C(=O)N(C5CCC(=O)NC5=O)C6=O)C4)CC3)cc2cc1NC(=O)c1cccc(C(F)(F)F)n1 (stereo partly shown) [I-64]
4,< 50 nM,CC(C)(O)c1cc2nn([C@H]3CC[C@H](CN4CCO[C@@H](CCNc5cccc6c5C(=O)N(C5CCC(=O)NC5=O)C6=O)C4)CC3)cc2cc1NC(=O)c1cccc(C(F)(F)F)n1 (stereo partly shown) [I-65]
5,500 to 1000 nM,CN(CCCO[C@H]1C[C@H](Nc2cccc3c2C(=O)N(C2CCC(=O)NC2=O)C3=O)C1)C[C@H]1CC[C@H](n2cc3cc(NC(=O)Cc4cccc(C(F)(F)F)n4)c(C(C)(C)O)cc3n2)CC1 (stereo partly shown) [I-70]
6,100 to 500 nM,COc1cc2nn([C@H]3CC[C@H](CN(C)C4CCN(c5cccc6c5C(=O)N(C5CCC(=O)NC5=O)C6=O)CC4)CC3)cc2cc1NC(=O)c1cccc(C(F)(F)F)n1 (stereo partly shown) [I-76]
7,50 to 100 nM,COc1cc2nn([C@H]3CC[C@H](CN4CCC5(CC4)CC(Nc4cccc6c4C(=O)N(C4CCC(=O)NC4=O)C6=O)C5)CC3)cc2cc1NC(=O)c1cccc(C(C)(C)F)n1 (stereo partly shown) [I-78]
8,100 to 500 nM,CN(CCCn1cc2cc(NC(=O)c3cccc(C(F)(F)F)n3)c(C(C)(C)O)cc2n1)C1CCC2(CC1)CC(Nc1cccc3c1C(=O)N(C1CCC(=O)NC1=O)C3=O)C2 (stereo not shown) [I-79]
9,500 to 1000 nM,CC(C)(O)c1cc2c(cnn2CCN2CCC3(CC2)CC(CCNc2cccc4c2C(=O)N(C2CCC(=O)NC2=O)C4=O)C3)cc1NC(=O)c1cccc(C(F)(F)F)n1 (stereo not shown) [I-87]
10,50 to 100 nM,O=C1CCC(N2C(=O)c3cccc(NCCC4CC5(CCN(C[C@H]6CC[C@H](n7cc8cc(NC(=O)c9cccc(C(F)(F)F)n9)c(OC(F)F)cc8n7)CC6)CC5)C4)c3C2=O)C(=O)N1 (stereo partly shown) [I-89]
11,50 to 100 nM,COc1cc2nn([C@H]3CC[C@H](CN4CCC5(CC4)CC(CCNc4cccc6c4C(=O)N(C4CCC(=O)NC4=O)C6=O)C5)CC3)cc2cc1NC(=O)c1cccc(C(C)(C)F)n1 (stereo partly shown) [I-92]
